Experimental data as given in patent publication US7851436B2, “Inhibition of migration and induction of cell death by the type II collagen amino propeptides” (Washington University, priority 2007, dated 2010).
Entries after “also recorded” stand apart in the source; their conditions may differ.

How the values were obtained:
[1] = target: T1, αVβ3 integrin (Homo sapiens, UniProt P05106+P06756); test: Cell surface labeling and GST pull-down with immunoblotting; assay type: binding; conditions: biotin-labeled Ch-1 membrane proteins, Western blot
T1 construct: Ch-1 membrane proteins were labeled with biotin, and PIIBNP was used to isolate the integrin molecules; endogenous in cells; host or cells: Ch-1 human chondrosarcoma cells (surface-biotinylated, lysed)
T1 sequence (P06756 31-889 limits assumed): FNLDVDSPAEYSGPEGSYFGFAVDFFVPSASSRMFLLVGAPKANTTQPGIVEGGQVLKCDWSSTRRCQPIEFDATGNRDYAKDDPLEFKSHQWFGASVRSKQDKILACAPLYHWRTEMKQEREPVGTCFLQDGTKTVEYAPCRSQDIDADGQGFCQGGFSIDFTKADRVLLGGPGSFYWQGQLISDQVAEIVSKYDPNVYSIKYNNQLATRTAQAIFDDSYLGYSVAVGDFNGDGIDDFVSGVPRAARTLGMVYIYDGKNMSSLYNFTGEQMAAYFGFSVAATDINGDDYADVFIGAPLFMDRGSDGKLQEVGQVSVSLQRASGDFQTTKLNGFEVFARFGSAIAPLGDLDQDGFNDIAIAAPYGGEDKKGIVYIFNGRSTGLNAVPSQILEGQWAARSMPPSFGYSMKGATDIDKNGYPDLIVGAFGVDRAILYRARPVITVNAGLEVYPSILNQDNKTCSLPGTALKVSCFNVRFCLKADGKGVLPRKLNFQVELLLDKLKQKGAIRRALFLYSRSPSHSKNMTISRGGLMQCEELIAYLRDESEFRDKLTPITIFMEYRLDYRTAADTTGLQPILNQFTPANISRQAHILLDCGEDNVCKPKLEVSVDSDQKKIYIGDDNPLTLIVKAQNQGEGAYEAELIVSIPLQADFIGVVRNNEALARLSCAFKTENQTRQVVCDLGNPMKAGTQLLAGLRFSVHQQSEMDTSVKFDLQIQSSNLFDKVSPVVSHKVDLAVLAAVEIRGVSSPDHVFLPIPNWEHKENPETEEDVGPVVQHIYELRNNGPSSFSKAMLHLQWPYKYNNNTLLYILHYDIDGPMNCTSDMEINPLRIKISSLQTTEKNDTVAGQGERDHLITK
T1 sequence (P06756 891-1048 limits assumed): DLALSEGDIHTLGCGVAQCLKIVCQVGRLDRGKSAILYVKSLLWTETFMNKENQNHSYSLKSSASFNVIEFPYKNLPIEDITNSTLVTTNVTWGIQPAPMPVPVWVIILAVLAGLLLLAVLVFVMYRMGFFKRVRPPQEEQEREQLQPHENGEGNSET
T1 sequence (P05106 27-788): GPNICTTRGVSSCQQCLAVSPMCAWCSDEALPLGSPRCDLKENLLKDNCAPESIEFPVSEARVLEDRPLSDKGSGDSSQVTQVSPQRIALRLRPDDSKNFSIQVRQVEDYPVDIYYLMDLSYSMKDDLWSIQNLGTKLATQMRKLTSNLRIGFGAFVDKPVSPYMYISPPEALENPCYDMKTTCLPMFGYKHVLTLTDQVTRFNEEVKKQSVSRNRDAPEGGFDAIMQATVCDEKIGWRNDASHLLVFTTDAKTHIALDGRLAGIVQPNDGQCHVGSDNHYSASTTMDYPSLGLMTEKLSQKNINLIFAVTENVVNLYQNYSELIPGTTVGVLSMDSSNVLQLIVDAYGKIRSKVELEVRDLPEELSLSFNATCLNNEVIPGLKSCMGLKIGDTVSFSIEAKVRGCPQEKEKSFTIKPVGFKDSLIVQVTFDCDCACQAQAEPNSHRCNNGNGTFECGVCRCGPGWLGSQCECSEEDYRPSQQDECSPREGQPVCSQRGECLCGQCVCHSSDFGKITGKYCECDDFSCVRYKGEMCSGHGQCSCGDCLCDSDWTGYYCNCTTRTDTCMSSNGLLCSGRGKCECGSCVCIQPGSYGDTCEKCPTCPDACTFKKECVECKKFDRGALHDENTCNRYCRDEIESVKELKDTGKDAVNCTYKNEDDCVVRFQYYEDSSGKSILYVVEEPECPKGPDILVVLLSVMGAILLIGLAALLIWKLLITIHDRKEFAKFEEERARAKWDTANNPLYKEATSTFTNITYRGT
Method: (§1) Immunoblotting. Western blotting was performed as described (7). Blots were probed with the following primary antibodies: rabbit anti αV, α2, α3, α5, β1, β3, β5 integrin and goat anti actin (Saint Cruz), chicken anti PIIBNP antiserum, and mouse anti exon 2 antiserum.
(§2) Cell Surface labeling and GST Pull-down Assay. Ch-1 cells were incubated with EZ-link Sulfo-NHS-Biotin reagent for 30 mins. according to the product instruction (Sigma). After 3 washes with 0.1 M glycine in PBS, the cells were lysed with a lysis buffer described above. The lysate was incubated with glutathione derivatized agarose beads previously bound with GST, PIIANP, PIIBNP or mPIIBNP for 1 hr. at RT. […] The membrane was washed and incubated with antibodies and then incubated with a secondary antibody coupled to horseradish peroxidase. The antibody complex was visualized by enhanced chemiluminescence.

[2] = target: T2, αVβ5 integrin (Homo sapiens, UniProt P06756+P18084); test: as above; assay type: binding; conditions: biotin-labeled Ch-1 membrane proteins, Western blot
T2 construct: Ch-1 membrane proteins were labeled with biotin, and PIIBNP was used to isolate the integrin molecules; endogenous in cells; host or cells: Ch-1 human chondrosarcoma cells (surface-biotinylated, lysed)
T2 sequence (P06756 31-889 limits assumed): as the sequence (P06756 31-889 limits assumed) above
T2 sequence (P06756 891-1048 limits assumed): as the sequence (P06756 891-1048 limits assumed) above
T2 sequence (P18084 24-799): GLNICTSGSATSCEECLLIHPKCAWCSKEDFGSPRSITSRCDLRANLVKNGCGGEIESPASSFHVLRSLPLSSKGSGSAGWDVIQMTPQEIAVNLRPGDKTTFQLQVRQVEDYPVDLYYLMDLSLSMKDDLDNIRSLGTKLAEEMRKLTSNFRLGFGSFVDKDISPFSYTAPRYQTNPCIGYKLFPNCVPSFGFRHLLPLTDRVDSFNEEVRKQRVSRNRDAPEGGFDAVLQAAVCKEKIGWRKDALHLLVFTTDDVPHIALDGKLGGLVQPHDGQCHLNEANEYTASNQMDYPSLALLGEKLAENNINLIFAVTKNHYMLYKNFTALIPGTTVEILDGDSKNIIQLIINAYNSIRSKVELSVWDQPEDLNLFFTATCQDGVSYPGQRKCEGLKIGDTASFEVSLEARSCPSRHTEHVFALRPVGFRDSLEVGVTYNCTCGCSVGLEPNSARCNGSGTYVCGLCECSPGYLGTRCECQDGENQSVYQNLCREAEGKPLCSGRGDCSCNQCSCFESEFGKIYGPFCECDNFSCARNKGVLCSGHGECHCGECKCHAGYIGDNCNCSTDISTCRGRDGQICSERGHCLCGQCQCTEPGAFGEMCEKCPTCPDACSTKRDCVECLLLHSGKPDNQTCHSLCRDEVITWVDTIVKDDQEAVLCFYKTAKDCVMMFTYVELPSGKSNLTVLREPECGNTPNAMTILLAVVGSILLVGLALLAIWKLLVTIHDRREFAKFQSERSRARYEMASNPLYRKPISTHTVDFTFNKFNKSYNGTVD
Method: as §1, §2

[3] = system: β1, α4, and α5 integrin; test: Cell surface labeling and GST pull-down with immunoblotting (other integrins); assay type: binding, human; conditions: b23: β1 only; b113: β1, α4 and α5
Method: as §1, §2

[4] = target: T3, αV integrin (Homo sapiens, UniProt P06756); test: Integrin αV immunoprecipitation; assay type: binding; conditions: Ch-1 cell lysates
T3 construct: Cell homogenates were then mixed with GST, PIIBNP, or mPIIBNP; endogenous in cells; host or cells: Ch-1 human chondrosarcoma cell lysate
T3 sequence (P06756 31-889 limits assumed): as the sequence (P06756 31-889 limits assumed) above
T3 sequence (P06756 891-1048 limits assumed): as the sequence (P06756 891-1048 limits assumed) above
Method: Integrin αV Immunoprecipitation. Ch-1 cells were lysed in lysis buffer (50 mM Hepes-KOH [pH 7.4]; 150 mM NaCl; 1% Triton X-100; 10% glycerol; 1 mM EGTA; 1 mM EDTA; 10 mM sodium pyrophosphate; 100 mM sodium fluoride; 0.2 mM sodium orthovanadate; supplemented with the proteinase inhibitors cocktail (Sigma) overnight at 4° C. Cell homogenates were then mixed with GST, PIIBNP, or mPIIBNP and incubated for 1 hours at room temperature. Protein A agarose (Sigma) previously bound with integrin αV antibody was incubated with cell homogenate mixture for 4 h at 4° C. with gentle shaking. After washing (5 mins.×3), the precipitated material was analyzed by SDS-PAGE and detected with chicken anti PIIBNP antibody.

[5] = system: normal human articular chondrocytes; test: Cell survival assay in normal human articular chondrocytes; assay type: cell-based; conditions: high-density monolayers
Method: Cell Culture. Human Chondrosarcoma cell line (Ch-1) was isolated from a portion of chondrosarcoma tumor. The Ch-1 cell line was maintained in RPMI-1640 supplemented with 10% FBS and at 37° C. in a humidified, 5% CO2 atmosphere. Human chondrocytes were obtained from Dr. Davis Adkisson (ISTO Technologies, St. Louis) or isolated from macroscopically intact tissue obtained from total joint arthroplasty as described (Bassleer et al., 1998). HeLa 229 cells and MDA-MB 231 cell lines were provided by Dr. Kathy Weilbaecher (Washington University) and were cultured in RPMI medium supplemented with 10% FBS. HUVEC cells were a gift from Dr. William Frazier (Washington University) and were cultured in M199 Earle's medium with 10 units/ml of penicillin, 5 μg/ml streptomycin and 0.25 μg/ml Fungizone supplemented with 10% FBS, 0.1 mg/ml L-glutamine, 25 mM Hepes, 16 units/ml of heparin (Sigma) and 0.1 mg/ml endothelial cell mitogen (Biochemical Technologies).
Detection of Cell Death. […] Cells were monitored by light microscopy and images were digitally photographed using a Q capture Retiga 2000R camera. Quantification of cells remaining in the well was performed by washing with PBS for three times, fixing with 4% paraformaldehyde. The cells per field (×400) were counted for three field per well (3 wells per measurement). The mean number and standard deviation (SD) were calculated.

[6] = system: HUVEC cells; test: HUVEC cell death; assay type: cell-based, human
Method: FIG. 6 depicts photographs and graphs showing that PIIBNP inhibits angiogenesis. […] Quantification of tube formation was calculated based on branch points per field of view (FIG. 6C) for each treatment ranging from 0.1 μM to 10 μM of PIIBNP. […] GST (▴) and PIIANP (●) had no effect on the cells.
As a second test for angiogenesis, we tested the ability of PIIBNP to inhibit outgrowth of endogenous endothelial cells from freshly isolated rat aorta. […] In order to determine whether PIIBNP caused endothelial cell death, the number of HUVEC cells present after incubation with PIIBNP was determined (FIGS. 6E and 8). Tube formation was inhibited by 50% with 0.1 μM PIIBNP, with no cell death. […] Consequently, PIIBNP can inhibit angiogenesis in a cell line and in endogenous endothelial cells mediated by integrins αVβ3 and αVβ5.

[7] = system: Ch-1 cells; test: Migration of Ch-1 cells; assay type: cell-based, human; conditions: data not shown
[8] = system: Ch-1 cells; test: Internalization of propeptides (immunostaining); assay type: cell-based, human
Text: Ch-1 cells exposed to GST-PIIBNP and GST-PIIANP were immunostained with immunospecific antibodies. […] The internalization of PIIBNP may be exploited to target exogenous agents to cells expressing αVβ3 and αVβ5 integrins.

[9] = system: mouse osteoclast cells; test: Osteoclast viability (trypan blue exclusion); assay type: cell-based; conditions: 16 hours at 37° C.
Method: (§3) FIG. 10 depicts a graph showing mouse chondrogenic cells (ATDC5), mouse osteoblast cells, and mouse osteoclast cells treated with recombinant GST, PIIBNP or mPIIBNP proteins for 16 hours at 37° C. The cells were trypsinized and cell viability was assayed using a trypan blue exclusion based cell counting. PPIIBNP induced death in osteoclasts that resorb the bone, but not the osteoblasts that form bone.

[10] = system: mouse chondrogenic cells (ATDC5); test: Chondrogenic cell viability (trypan blue exclusion); assay type: cell-based; conditions: 16 hours at 37° C.
Method: as §3

[11] = system: osteoclasts differentiated from Raw 264.7 cells, integrin αv siRNA treated; test: Osteoclast death after integrin αv siRNA; assay type: cell-based, mouse; conditions: 16 hours
Method: FIG. 11 depicts a graph showing PIIBNP-induced osteoclast death. siRNA specifically targeted to integrin αv was purchased from San Cruz (San Cruz, Calif.). Raw 264.7 cells were differentiated into osteoclasts by treatment with 100 nM of s-RANKL. The integrin αv expression in the […] were suppressed by treatment of the cells with siRNA. Integrin αv suppressed osteoblasts were incubated with recombinant GST, PIIBNP or mPIIBNP for 16 hours. Cell viability was assayed by a trypan blue exclusion test as described in FIG. 3.

**Q.** For “PIIBNP: Recombinant human Type IIB procollagen NH2-propeptide (exons 3-8, lacking exon 2), expressed as GST fusion protein”, which “binding to integrin αVβ3” value [1] is on record?
**A.** only integrins identified; also recorded: binds

**Q.** What about the “binding to integrin αVβ5” value [2] of the same substance?
**A.** only integrins identified; also recorded: binds

**Q.** And the “reaction of integrin antibodies with material pulled out by PIIBNP” value [3]?
**A.** did not react

**Q.** What about the “immunoprecipitation with αV integrin specific antibody” value [4] of the same substance?
**A.** immunoprecipitated

**Q.** And the “induction of cell death in normal chondrocytes” value [5]?
**A.** did not induce cell death

**Q.** What about the HUVEC cell death ([6]; 0.1 μM) of the same substance?
**A.** no cell death

**Q.** What about the HUVEC cell death ([6]; 60 hrs, 37° C., higher concentrations) of the same substance?
**A.** cell death was induced; also recorded: caused cell death in a concentration-dependent manner

**Q.** And the “inhibition of migration of Ch-1 cells” value [7]?
**A.** can inhibit migration

**Q.** What about the internalization into cells [8] of the same substance?
**A.** is internalized

**Q.** And the “colocalization with actin filaments” value ([8]; 30 minutes of exposure)?
**A.** colocalized with actin filaments

**Q.** What about the “localization to the nucleus” value ([8]; 2 hours of exposure) of the same substance?
**A.** localized to the nucleus; also recorded: colocalized with the nucleus

**Q.** And the “induction of osteoclast death” value ([9]; listed as PPIIBNP)?
**A.** induced death

**Q.** And the “induction of osteoclast death” value ([9]; listed as Type IIB propeptide)?
**A.** induced the death

**Q.** What about the “induction of ATDC5 cell death” value [10] of the same substance?
**A.** did not lead to the mouse chondrogenic cell (ATDC5) death

**Q.** And the “PIIBNP-induced osteoclast death after integrin αv siRNA compared with control siRNA” value [11]?
**A.** significantly reduced
